Consider 16 molecules from ChEMBL document CHEMBL5325393, “A mini-review on synthesis and antiviral activity of natural product oxetanocin A derivatives” (Bioorg Med Chem, 2022).

Structures are written as SMILES. Values after ≈ are worked out from the molar mass of the structure shown.

In assay [1] the test system is Murid betaherpesvirus 1. In words: Antiviral activity against MCMV Smith infected in MEF cells assessed as reduction in plaque formation by plaque reduction assay. Format: functional. The conditions noted are these: Murid betaherpesvirus 1, Smith, read-out: ED50 (the source's name). On the technique in general: In a plaque reduction assay, fewer plaques than in the control indicate reduced infectivity or spread.

The subject of assay [2] is Human betaherpesvirus 5. The experiment in a line: Antiviral activity against HCMV AD169 infected in HEL cells assessed as reduction in virus induced cytopathogenicity by plaque reduction assay. The conditions noted are these: Human betaherpesvirus 5, AD169, HEL. It is filed as functional, organism-based. (In general: Damage to the host cells serves as the signal in cytopathic effect assays.)

Assay [3] relates to Human immunodeficiency virus. In words: Antiviral activity against HIV assessed as inhibition of viral growth. It is filed as functional, organism-based. The conditions noted are these: Human immunodeficiency virus 1.
The test system of assay [4] is Hepatitis B virus. In words: Antiviral activity against HBV assessed as inhibition of viral growth. Format: functional, organism-based.
The subject of assay [5] is Human alphaherpesvirus 2. In words: Antiviral activity against HSV-2 assessed as inhibition of viral growth. It is filed as functional, organism-based.
Assay [6] deals with Human betaherpesvirus 5. In words: Antiviral activity against HCMV assessed as inhibition of viral growth. Format: functional, organism-based.
Assay [7] relates to Human alphaherpesvirus 1. In words: Antiviral activity against HSV-1 assessed as inhibition of viral growth. It is filed as functional, organism-based.
For assay [8], the system named is Human alphaherpesvirus 1. The experiment in a line: Antiviral activity against lethal intracerebral HSV-1 123 infected in po dosed Swiss mouse model assessed as increase in animal survival administered as single double strength loading dose at 7 hrs post-inoculation and single strength dose at 23, 31, 47, 55, 71, 79 hrs post-inoculation and monitored for 21 days. It is filed as functional. The conditions noted are these: time 21 day.

Assay [9] deals with Human alphaherpesvirus 1. In words: Antiviral activity against thymidine kinase positive HSV-1 123 infected in HFF cells assessed as reduction in viral replication incubated for 3 days by crystal violet staining based microplate reader analysis. The conditions noted are these: Human alphaherpesvirus 1, 123, HFF, 72 h. It is filed as functional, organism-based.
Assay [10] concerns Cytomegalovirus. The experiment in a line: Antiviral activity against CMV AD-169 infected in HEL cells assessed as reduction in virus plaque formation. Format: functional, organism-based. The conditions noted are these: Human betaherpesvirus 5, AD-169, HEL.
Assay [11] relates to Human alphaherpesvirus 2. In words: Antiviral activity against thymidine kinase deficient HSV-2 assessed as inhibition of viral replication by plaque reduction assay. Format: functional, organism-based.
The subject of assay [12] is Human alphaherpesvirus 1. In words: Antiviral activity against thymidine kinase positive HSV-1 SC-16 infected in HFF cells assessed as reduction in viral replication incubated for 3 days by crystal violet staining based microplate reader analysis. It is filed as functional, organism-based. The conditions noted are these: Human alphaherpesvirus 1, SC-16, HFF, 72 h.
Assay [13] deals with Human alphaherpesvirus 1. The experiment in a line: Antiviral activity against lethal systemic HSV-1 123 infected in po dosed Swiss mouse model assessed as increase in animal survival administered as single double strength loading dose at 7 hrs post-inoculation and single strength dose at 23, 31, 47, 55, 71, 79 hrs post-inoculation and monitored for 21 days. It is filed as functional. The conditions noted are these: time 21 day.

Assay [14] concerns Human alphaherpesvirus 1. In words: Antiviral activity against thymidine kinase positive HSV-1 E-377 infected in HFF cells assessed as reduction in viral replication incubated for 3 days by crystal violet staining based microplate reader analysis. Format: functional, organism-based. The conditions noted are these: Human alphaherpesvirus 1, E-377, HFF, 72 h.
Assay [15] relates to Human alphaherpesvirus 2. The experiment in a line: Antiviral activity against HSV-2 186 infected in African green monkey Vero cells assessed as reduction in virus induced cytopathogenicity by plaque reduction assay. It is filed as functional, organism-based. The conditions noted are these: Human alphaherpesvirus 2, 186, Vero.
Assay [16] relates to Human alphaherpesvirus 1. The experiment in a line: Antiviral activity against HSV-1 KOS infected in African green monkey Vero cells assessed as reduction in virus induced cytopathogenicity by plaque reduction assay. The conditions noted are these: Human alphaherpesvirus 1, KOS. It is filed as functional, organism-based.
The test system of assay [17] is Human betaherpesvirus 5. In words: Antiviral activity against HCMV AD169 infected in HELF cells by plaque reduction assay. Format: functional, organism-based. The conditions noted are these: Human betaherpesvirus 5, AD169, HELF.
The subject of assay [18] is Human immunodeficiency virus 1. The experiment in a line: Antiviral activity against HIV-1 HTLV-IIIB infected in human MT4 cells assessed as inhibition of viral replication incubated for 4 days by immunofluorescence assay. Format: functional, organism-based. The conditions noted are these: Human immunodeficiency virus 1, HTLV-IIIB, MT4, 96 h.
In assay [19] the test system is Human immunodeficiency virus. The experiment in a line: Antiviral activity against HIV RF assessed as inhibition of viral growth. Format: functional, organism-based. The conditions noted are these: Human immunodeficiency virus 1, RF.
In assay [20] the test system is Human immunodeficiency virus. In words: Antiviral activity against HIV infected in human MT4 cells by plaque reduction assay. The conditions noted are these: Human immunodeficiency virus 1, MT4. It is filed as functional, organism-based.
Assay [21] concerns Human immunodeficiency virus 1. In words: Antiviral activity against HIV-1 HTLV-IIIB infected in human MT4 cells assessed as inhibition of viral replication. The conditions noted are these: Human immunodeficiency virus 1, HTLV-IIIB. Format: functional, organism-based.
For assay [22], the system named is Human immunodeficiency virus 1. The experiment in a line: Antiviral activity against HIV-1 assessed as inhibition of viral replication. Format: functional, organism-based.
Assay [23] deals with HUVEC. In words: Angiogenic activity against HUVEC cells assessed as relative area of tube formation at 100 uM incubated for 10 days by tube formation assay. Format: functional, Homo sapiens. The conditions noted are these: time 10 day.
For assay [24], the system named is MT4. The experiment in a line: Cytotoxicity against human MT4 cells assessed as inhibition of cell growth. Format: functional.
For assay [25], the system named is Hepatitis B virus. In words: Antiviral activity against HBV infected in human HepG2.2.15 cells assessed as reduction in virus induced cytopathogenicity by Southern blot analysis. Format: functional, organism-based.
Assay [26] deals with Human immunodeficiency virus 1. In words: Antiviral activity against HIV-1 HTLV-IIIB infected in human MT4 cells assessed as reduction in virus induced cytopathogenicity by immunofluorescence assay. It is filed as functional, organism-based. The conditions noted are these: Human immunodeficiency virus 1, HTLV-IIIB.
Assay [27] deals with Human alphaherpesvirus 2. In words: Potency index, ratio of acyclovir EC50 to test compound EC50 for antiviral activity against HSV-2 186 infected in African green monkey Vero cells assessed as reduction in virus induced cytopathogenicity by plaque reduction assay. Format: functional.
The test system of assay [28] is Human alphaherpesvirus 1. The experiment in a line: Potency index, ratio of acyclovir EC50 to test compound EC50 for antiviral activity against HSV-1 KOS infected in African green monkey Vero cells assessed as reduction in virus induced cytopathogenicity by plaque reduction assay. It is filed as functional.

As for `Nc1nc2c(ncn2COC(CO)CO)c(=O)[nH]1` [GANCICLOVIR], the EC50 in [1] was 1 µg/mL (≈ 3.92 µM); in [2], 0.71 µg/mL (≈ 2.78 µM).

As usually defined, the IC50 is the concentration that gives 50% inhibition. Take `Nc1nc(=O)c2ncn([C@@H]3C[C@H](CO)[C@H]3CO)c2[nH]1` [LOBUCAVIR]: the EC50 in assay [1] amounted to 0.1 µg/mL (≈ 0.377 µM). Besides, the IC50 was determined as 300 nM in assay [3]; 860 nM in assay [4]; 80 nM in [5]; 400 nM in assay [6]; 47 nM in assay [7].

In the case of `Nc1nc2c(ncn2COCCO)c(=O)[nH]1` [ACYCLOVIR], the ED50 in assay [8] and in assay [13] was greater than 500 mg/kg.day throughout. The EC50 in assay [9] amounted to 200 nM; in assay [10] it was 40 µg/mL (≈ 178 µM); in [12], 200 nM; in assay [5], 0.39 µg/mL (≈ 1.73 µM); in assay [14], 200 nM; in [15], 0.18 µg/mL (≈ 0.799 µM). The EC50 in assay [7] turned out to be 0.32 µg/mL (≈ 1.42 µM); in assay [16], 0.41 µg/mL (≈ 1.82 µM). Moreover, the IC50 in assay [11] was found to be 12000 nM.

Molecule `Nc1nc(N)c2ncn([C@@H]3O[C@H](CO)[C@H]3CO)c2n1` showed an IC50 in [17] of 1000 nM. In assay [18], the EC50 came out at 2200 nM.

Regarding `[N-]=[N+]=N[C@H]1[C@H](n2cnc3c(N)ncnc32)O[C@@H]1CO`, the IC50 in [19] is 6 µg/mL (≈ 22.9 µM).

Regarding `Nc1ncnc2c1ncn2[C@@H]1O[C@H](CO)[C@@H]1O`, the IC50 in assay [20] was determined as 0.54 µg/mL (≈ 2.28 µM).

With `Nc1nc(F)nc2c1ncn2[C@@H]1O[C@H](CO)[C@H]1CO`, the figures for the IC50 in [21] and in assay [11] were 16 nM and 3900 nM, respectively.

For the molecule `Nc1ncnc2c1ncn2N1C[C@H](CO)[C@H]1CO`, the results for the EC50 in assay [22], in [5] and in assay [7] were 0.37 µg/mL (≈ 1.48 µM), 34.9 µg/mL (≈ 139 µM) and 33.2 µg/mL (≈ 133 µM), respectively.

`Nc1nc(Cl)nc2c1ncn2C1CC2(C1)CC(CO)(CO)C2`: in assay [23], the Ratio is on record as 3.59.

Take `O=c1[nH]c(=O)c2ncn([C@@H]3O[C@H](CO)[C@H]3CO)c2[nH]1`: in assay [17], the IC50 was greater than 50000 nM. Also, in assay [18], the EC50 was greater than 100000 nM.

For the molecule `Cc1cn([C@H]2C[C@H](N=[N+]=[N-])[C@@H](CO)O2)c(=O)[nH]c1=O` [ZIDOVUDINE], the EC50 in [22] worked out at 0.003 µg/mL (≈ 0.0112 µM).

Take `COc1nc(N)c2ncn([C@@H]3C[C@H](CO)[C@H]3CO)c2n1`: in [23], the Ratio is on record as 1.87.

As to `Nc1nc2c(ncn2[C@H]2C[C@@H](CO)C2)c(=O)[nH]1`, in assay [3], the EC50 stood at 8000 nM.

Regarding `O=C(Nc1ncnc2c1ncn2[C@@H]1O[C@H](CO)[C@H]1O)c1ccccc1`, the IC50 in assay [20] worked out at 5.5 µg/mL (≈ 16.1 µM).

Usually CC50 stands for the concentration that lowers cell viability or growth by half. On to `O=c1[nH]cnc2c1ncn2[C@@H]1O[C@H](CO)[C@H]1CO`, for which the CC50 in assay [24] stood at 330000 nM. 18000 nM corresponded to half-maximal inhibition in assay [17] (IC50). Also, in [18], the EC50 is 2200 nM.

As to `Nc1ncnc2c1ncn2[C@@H]1C[C@](F)(CO)[C@H]1CO`, the EC50 came out at 0.41 µg/mL (≈ 1.53 µM) in [25]; 3.73 µg/mL (≈ 14 µM) in [26]; 0.18 µg/mL (≈ 0.673 µM) in [2]; 1.33 µg/mL (≈ 4.98 µM) in assay [15]; 2.72 µg/mL (≈ 10.2 µM) in [16]. In addition, the “Ratio EC50” value in assay [27] and in [28] was 7 each time.
